According to US5622962A, “5α-reductase inhibitors” (priority 1995, dated 1997):
Read-outs that look alike come from different tables or passages of the source.

Tests used:
[1] = target: T1, Type II 5α-Reductase from Human Prostate (Homo sapiens, UniProt P31213); test: Human Type II 5α-reductase assay (conversion of [3H]-testosterone to 5α-reduced metabolites); format: biochemical
T1 construct: The same procedure as above was used for preparations using tissue from prostate surgery; from tissue; host or cells: human prostate tissue from surgery, homogenate, 100,000×g pellet
T1 sequence (P31213 1-254): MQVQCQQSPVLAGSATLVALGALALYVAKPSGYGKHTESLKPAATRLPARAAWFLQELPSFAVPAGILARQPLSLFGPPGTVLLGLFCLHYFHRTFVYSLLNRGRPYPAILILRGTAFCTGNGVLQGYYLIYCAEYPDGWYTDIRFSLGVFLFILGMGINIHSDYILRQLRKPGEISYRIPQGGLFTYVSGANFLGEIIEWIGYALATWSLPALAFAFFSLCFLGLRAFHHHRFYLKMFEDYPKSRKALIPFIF

[2] = target: T2, Type I 5α-Reductase from Human Scalp (Homo sapiens, UniProt P18405); test: Human Type I 5α-reductase assay (conversion of [3H]-testosterone to 5α-reduced metabolites); format: biochemical
T2 construct: Scalp punch biopsies from graft recipient sites were obtained from human hair transplant procedures; from tissue; host or cells: human scalp punch biopsies (hair transplant graft recipient sites), homogenate, 100,000×g pellet
T2 sequence (P18405 1-259): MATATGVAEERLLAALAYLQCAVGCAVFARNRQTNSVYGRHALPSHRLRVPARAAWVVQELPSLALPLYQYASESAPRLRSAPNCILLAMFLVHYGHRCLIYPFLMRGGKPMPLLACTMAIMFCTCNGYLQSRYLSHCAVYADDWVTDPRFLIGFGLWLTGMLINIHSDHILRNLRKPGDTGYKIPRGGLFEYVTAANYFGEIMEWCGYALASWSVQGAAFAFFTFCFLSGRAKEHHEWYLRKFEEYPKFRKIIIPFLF

[3] = pH 5.5, 0.3 μM, sodium acetate pH 5.5, 25°, 30 min, compared to control reaction mixtures, read-out: percent inhibition of Type II AR
[4] = pH 7.5, 0.3 μM, 50 nM [3H]-testosterone, pH 7.5, 25°, 180 min, compared to control reaction mixtures, read-out: percent inhibition of Type I AR
[5] = pH 5.5, read-out: percent inhibition of Type II AR
[6] = pH 7.5, read-out: percent inhibition of Type I AR

inhibition at 0.3 µM [1, 3] [%]	inhibition at 0.3 µM [2, 4] [%]	percent inhibition of Type I AR ([2]; 0.3 μM, 50 nM [3H]-testosterone, pH 7.5, 25°, 180 min, compared to control reaction mixtures) [%]	Structure (SMILES)	inhibition at 0.3 µM [1, 5] [%]	inhibition at 0.3 µM [2, 6] [%]
28	37	–	CN1C(=O)CC[C@]2(C)c3ccc(-c4ncccn4)cc3CC[C@@H]12 [Example 254, (+)-(4aR)-(10bR)-4-methyl-8-(2-pyrimidinyl)-10b-methyl-1,2,3,4,4a,5,6,10b-octahydrobenzo[f]quinolin-3-one]	–	–
37	71	–	CN1C(=O)CC[C@]2(C)c3ccc(-c4cnc5ccccc5n4)cc3CC[C@@H]12 [Example 255, (+)-(4aR)-(10bR)-4-methyl-8-(2-quinoxalinyl)-10b-methyl-1,2,3,4,4a,5,6,10b-octahydrobenzo[f]quinolin-3-one]	–	–
18	38	–	CN1C(=O)CC[C@]2(C)c3ccc(-c4nc5ccccc5[nH]4)cc3CC[C@@H]12 [Example 256, (+)-(4aR)-(10bR)-4-methyl-8-(2-benzimidazolyl)-10b-methyl-1,2,3,4,4a,5,6,10b-octahydrobenzo[f]quinolin-3-one]	–	–
58	36	–	CN1C(=O)CC[C@]2(C)c3ccc(-c4n[nH]c5ccccc45)cc3CC[C@@H]12 [Example 257, (+)-(4aR)-(10bR)-4-methyl-8-(3-indazolyl)-10b-methyl-1,2,3,4,4a,5,6,10b-octahydrobenzo[f]quinolin-3-one]	–	–
16	27	–	CN1C(=O)CC[C@]2(C)c3ccc(-c4nnnn4-c4ccccc4)cc3CC[C@@H]12 [Example 258, (+)-(4aR)-(10bR)-4-methyl-8-(2-[3-phenyl]tetrazolyl)-10b-methyl-1,2,3,4,4a,5,6,10b-octahydrobenzo[f]quinolin-3-one]	–	–
14	31	–	CN1C(=O)CC[C@]2(C)c3ccc(-c4ccc(C(F)(F)F)cn4)cc3CC[C@@H]12 [Example 259, (+)-(4aR)-(10bR)-4-methyl-8-(2-[5-trifluoromethyl]pyridinyl)-10b-methyl-1,2,3,4,4a,5,6,10b-octahydrobenzo[f]quinolin-3-one]	–	–
40	84	–	CN1C(=O)CC[C@]2(C)c3ccc(-c4nc5c(ccc6ccccc65)s4)cc3CC[C@@H]12 [Example 260, (+)-(4aR)-(10bR)-4-methyl-8-(2-naphtho<1,2-d>thiazolyl)-10b-methyl-1,2,3,4,4a,5,6,10b-octahydrobenzo[f]quinolin-3-one]	–	–
49	86	–	CN1C(=O)CC[C@]2(C)c3ccc(-c4nc5c(F)cccc5s4)cc3CC[C@@H]12 [Example 261, (+)-(4aR)-(10bR)-4-methyl-8-(2-[4-fluoro]benzothiazolyl)-10b-methyl-1,2,3,4,4a,5,6,10b-octahydrobenzo[f]quinolin-3-one]	–	–
41	91	–	CN1C(=O)CC[C@]2(C)c3ccc(-c4nc5c(Cl)cccc5s4)cc3CC[C@@H]12 [Example 262, (+)-(4aR)-(10bR)-4-methyl-8-(2-[4-chloro]benzothiazolyl)-10b-methyl-1,2,3,4,4a,5,6,10b-octahydrobenzo[f]quinolin-3-one]	–	–
47	56	–	CN1C(=O)CC[C@]2(C)c3ccc(-c4nc5cc(Cl)c(Cl)cc5s4)cc3CC[C@@H]12 [Example 263, (+)-(4aR)-(10bR)-4-methyl-8-(2-[5,6-dichloro]benzothiazolyl)-10b-methyl-1,2,3,4,4a,5,6,10b-octahydrobenzo[f]quinolin-3-one]	–	–
45	90	–	CC(C)c1cccc2sc(-c3ccc4c(c3)CC[C@H]3N(C)C(=O)CC[C@]43C)nc12 [Example 264, (+)-(4aR)-(10bR)-4-methyl-8-(2-[4-isopropyl]benzothiazolyl)-10b-methyl-1,2,3,4,4a,5,6,10b-octahydrobenzo[f]quinolin-3-one]	–	–
40	78	–	CN1C(=O)CC[C@]2(C)c3ccc(-c4nc5ccc(Cl)cc5s4)cc3CC[C@@H]12 [Example 265, (+)-(4aR)-(10bR)-4-methyl-8-(2-[6-chloro]benzothiazolyl)-10b-methyl-1,2,3,4,4a,5,6,10b-octahydrobenzo[f]quinolin-3-one]	–	–
44	57	–	CN1C(=O)CC[C@]2(C)c3ccc(Oc4ccc5ccccc5n4)cc3CC[C@@H]12 [Example 266, (+)-(4aR)-(10bR)-4-methyl-8-(2-quinolinyloxy)-10b-methyl-1,2,3,4,4a,5,6,10b-octahydrobenzo[f]quinolin-3-one]	–	–
51	34	–	CN1C(=O)CC[C@]2(C)c3ccc(NC(=O)c4ccccc4)cc3CC[C@@H]12 [Example 267, (+)-(4aR)-(10bR)-4,10b-dimethyl-8-benzoylamino-1,2,3,4,4a,-5,6,10b-octahydrobenzo[f]quinolin-3-one]	–	–
17	8	–	CN1C(=O)CC[C@]2(C)c3ccc(NC(=O)c4ccc([N+](=O)[O-])cc4)cc3CC[C@@H]12 [Example 269, (4aR)-(10bR)-4,10b-dimethyl-8-(4-nitrobenzoylamino)-1,2,3,4,4a,5,6,10b-octahydrobenzo[f]quinolin-3-one]	–	–
13	18	–	CN1C(=O)CC[C@]2(C)c3ccc(NC(=O)c4cccc(N)c4)cc3CC[C@@H]12 [Example 270, (4aR)-(10bR)-4,10b-dimethyl-8-(3-aminobenzoylamino)-1,2,3,4,4a,5,6,10b-octahydrobenzo[f]quinolin-3-one]	–	–
11	86	–	CN1C(=O)CC[C@]2(C)c3ccc(-c4cccc(NC(c5ccccc5)c5ccccc5)c4)cc3CC[C@@H]12 [Example 272, (+)-(4aR)-(10bR)-4-methyl-8-(3-diphenylmethylaminophenyl)-10b-methyl-1,2,3,4,4a,5,6,10b-octahydrobenzo[f]quinolin-3-one]	–	–
32	34	–	CN1C(=O)CC[C@]2(C)c3ccc(-c4cccc(NC(=O)C(C)(C)C)c4)cc3CC[C@@H]12 [Example 274, (+)-(4aR)-(10bR)-4-methyl-8-(3-[pivaloylamino]phenyl)-10b-methyl-1,2,3,4,4a,5,6,10b-octahydrobenzo[f]quinolin-3-one]	–	–
44	75	–	CN1C(=O)CC[C@]2(C)c3ccc(CCCc4ccccc4)cc3CC[C@@H]12 [Example 275, (+)-(4aR)-(10bR)-4-methyl-8-(3-phenylpropyl)-10b-methyl-1,2,3,4,4a,5,6,10b-octahydrobenzo[f]quinolin-3-one]	–	–
33	92	–	CN1C(=O)CC[C@]2(C)c3ccc(CCc4ccc5ccccc5c4)cc3CC[C@@H]12 [Example 276, (+)-(4aR)-(10bR)-4-methyl-8-(2-[2-naphthyl]ethyl)-10b-methyl-1,2,3,4,4a,5,6,10b-octahydrobenzo[f]quinolin-3-one]	–	–
40	42	–	CN1C(=O)CC[C@]2(C)c3ccc(CC(=O)Nc4ccccc4)cc3CC[C@@H]12 [Example 277, (4aR)-(10bR)-4,10b-dimethyl-8-phenylaminocarbonylmethyl-1,2,3,4,4a,5,6,10b-octahydrobenzo[f]quinolin-3-one]	–	–
–	–	–	CN1C(=O)CC[C@]2(C)c3ccc(/C=C/c4ccccc4)cc3CC[C@@H]12 [Example 279, (4aR)-(10bR)-4,10b-dimethyl-8-(2-phenylethenyl)-1,2,3,4,4a,5,6,10b-octahydrobenzo[f]quinolin-3-one]	60	85
33	97	100	CN1C(=O)CC[C@]2(C)c3ccc(CCc4ccccc4)cc3CC[C@@H]12 [Example 280, (4aR)-(10bR)-4,10b-dimethyl-8-(2-phenylethyl)-1,2,3,4,4a,5,6,10b-octahydrobenzo[f]quinolin-3-one]	–	–
–	–	–	CN1C(=O)CC[C@]2(C)c3ccc(C#Cc4ccccc4)cc3CC[C@@H]12 [Example 284, (4aR)-(10bR)-4,10b-dimethyl-8-(2-phenylethynyl)-1,2,3,4,4a,5,6,10b-octahydrobenzo[f]quinolin-3-one]	63	86
–	–	–	CN1C(=O)CC[C@]2(C)c3ccc(/C=C\c4ccccc4)cc3CC[C@@H]12 [Example 285, (4aR)-(10bR)-4,10b-dimethyl-8-(2-phenylethenyl)-1,2,3,4,4a,5,6,10b-octahydrobenzo[f]quinolin-3-one]	36	93
38	53	–	CN1C(=O)CC[C@]2(C)c3ccc(C(=O)c4ccccc4)cc3CC[C@@H]12 [Example 286, (4aR)-(10bR)-8-benzoyl-4,10b-dimethyl-1,2,3,4,4a,5,6,10b-octahydrobenzo[f]quinolin-3-one]	–	–
